From patent publication US20210355501A1, “INTERLEUKIN-8 FOR MAINTENANCE OF HUMAN ACUTE MYELOID LEUKEMIA AND MYELODYSPLASTIC SYNDROME AND USES THEREOF” (Albert Einstein College of Medicine, priority 2018, published 2021)
“Also recorded” adds a separate entry of the source.

Columns and labels:
IL8 = assay: serum IL8 levels by ELISA in patients; assay type: in vivo, human; conditions: 3 patients
From the text: FIG. 1A-1C. IL8 is detectable in MDS/AML serum and correlated with disease severity. ELISA for IL8 was done on controls and MDS and AML patient serum samples. […] IL8 levels were increased after transformation of low risk MDS to higher risk MDS/AML (B) and decreased after treatment with 5-Azacytidine (C).
It was previously shown that IL8 mRNA is overexpressed in MDS and AML cells. It was now determined whether IL8 can be detected in serum of patients with MDS and AML. A total of 33 patients (MDS low risk (21), MDS high risk (6) and AML (6)) and 30 controls sera were collected and analyzed for IL8 levels by ELISA. […] Furthermore, IL8 levels went up in 3 patients that transformed from low risk MDS to higher risk MDS or AML (FIG. 1B). Additionally, IL8 levels dropped after treatment in another 3 patients that were treated with 5-Azacytidine (FIG. 1C).

[1] = system: healthy control CD34+ cells; conditions: cited from earlier work
CXCR2 = molecular target: T1, CXCR2 (Homo sapiens, UniProt P25025); conditions: cited from earlier work
T1 sequence (P25025 1-360): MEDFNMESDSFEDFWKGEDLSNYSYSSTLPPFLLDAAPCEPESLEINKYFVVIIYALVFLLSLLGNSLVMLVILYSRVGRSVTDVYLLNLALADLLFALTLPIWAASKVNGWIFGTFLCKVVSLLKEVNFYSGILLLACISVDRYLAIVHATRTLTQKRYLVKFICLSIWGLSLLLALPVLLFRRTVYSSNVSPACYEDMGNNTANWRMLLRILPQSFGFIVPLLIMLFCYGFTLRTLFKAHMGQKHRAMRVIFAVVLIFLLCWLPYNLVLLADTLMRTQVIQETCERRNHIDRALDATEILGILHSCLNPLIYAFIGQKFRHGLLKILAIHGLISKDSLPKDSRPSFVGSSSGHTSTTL

[2] = system: primary samples from AML and high risk MDS cases; conditions: cited from earlier work
AML cell lines = conditions: all AML cell lines; cited from earlier work
[3] = system: primary AML patient cells; assay: AML cell engraftment in NSG mice pre-transplanted with doxycycline-induced hIL-8-transgenic bone marrow cells; assay type: in vivo, mouse; conditions: 4 months post-transplantation; for increase of AML cell engraftment vs uninduced control: p=0.0106, N=8
From the text: FIG. 3. Xenotransplantation of primary AML cells into NSG mice pre-transplanted with hIL8-transgenic and doxycycline-induced congenic bone marrow cells leads to a more than 10-fold increase (p=0.0106, N=8) of AML cell engraftment.
We have generated a new transgenic mouse model in which we inserted a doxycycline-inducible human IL-8 transgene into the immunocompromised NSG mouse strain. We then performed congenic transplantation of hIL-8-transgenic bone marrow cells into 8 parental NSG mice, followed by doxycycline-triggered induction of hIL-8 in 4 of the recipient mice. 4 uninduced mice served as a control. We then xenotransplanted 5×10^6 leukemic cells from an AML patient into these animals and determined AML cell engraftment in the bone marrow 4 months post-transplantation. […] We have now a novel transgenic mouse system available that permits for the first time the generation of robust primary xenografts and PDX models from AML and MDS patients' cells, which can be used for drug development and testing purposes as well as functional/mechanistic studies.

[4] = system: patient-derived xenografts from MDS/AML; assay: engraftment of patient-derived MDS/AML xenografts in NSG mice given exogenous recombinant human IL8; assay type: in vivo, mouse; conditions: for engraftment of primary MDS and AML patients' cells: 3 patient derived xenografts (1 AML, 2 MDS)
From the text: FIG. 2A-2E. Efficacy of human IL8 addition in patient-derived xenografts from MDS/AML. […] Averaged data in (C); data from individual subjects in (D). The improvement in engraftment is sustained (as shown for representative PDX) (E).

For `Nc1ncn([C@@H]2O[C@H](CO)[C@@H](O)[C@H]2O)c(=O)n1` [5-Azacytidine], the “IL8 levels in serum after treatment” value (IL8) was “decreased; also recorded: dropped”.

For `NS(=O)(=O)c1c(Cl)ccc(NC(=O)Nc2cccc(Cl)c2Cl)c1O` [SB332235], the “growth of healthy control CD34+ cells” value [1] is listed as “only minimally affecting growth”, the “selectivity for CXCR2 over CXCR1” value (CXCR2) is listed as 100 fold and the “proliferation in primary samples” value [2] is listed as “significant inhibition of proliferation”. The proliferation (AML cell lines) was “dose dependent decrease in proliferation”.

With “hIL-8: human IL-8 expressed from doxycycline-inducible transgene in transplanted bone marrow cells of NSG mice” the “AML cell engraftment in the bone marrow (average)” value ([3]; doxycycline-induced hIL-8, 5×10^6 leukemic cells) was 42.2%, the “increase of AML cell engraftment vs uninduced control” value [3] was 10.4 fold and the “increase of AML cell engraftment vs uninduced control” value ([3]; listed as hIL8) was “more than 10 fold”.

In the case of “rhIL8: exogenous recombinant human IL8 injected into xenotransplant recipient mice”, the “engraftment of primary MDS and AML patients' cells” value [4] is reported as “increased engraftment”, the “engraftment of primary MDS and AML patients' cells” value ([4]; listed as IL8) is reported as “highly significant increase” and the “engraftment from AML sample” value ([4]; NSG mice, after 3 weeks of treatment, vs vehicle controls) is reported as “higher engraftment”.
